Measured values reported in patent US10131679B2, “Substituted dihydropyrrolopyrazole compound” (UBE INDUSTRIES, LTD., priority 2014, dated 2018).

Experiments:
[1] = system: Human keratinocytes (NHEK-Neo Pooled); test: Human keratinocyte growth inhibition assay; assay type: cell-based; conditions: 48 h, culture for 2 days, Cell Counting Kit-8
Procedure: Human Keratinocyte Growth Inhibition Assay
The measurement of a human keratinocyte growth inhibitory effect was carried out by modifying the method of Schafer et al. (British Journal of Pharmacology, 159, 842 (2011)).
Human keratinocytes (NHEK-Neo Pooled, manufactured by Lonza Group AG, Cat. No. 00192906) were cultured in KGM-Gold Bullet Kit (manufactured by Lonza Group AG, Cat. No. 00192060) and inoculated at 2.0×10^3 cells/well to a 96-well plate. After overnight culture in a carbon dioxide incubator, a test compound dissolved in DMSO (final DMSO concentration: 0.1%) was added and left standing in a carbon dioxide incubator. After culture for 2 days, the absorbance thereof was measured by using Cell Counting Kit-8 (343-07623 manufactured by Dojindo Laboratories)).
The rate of inhibition of cell growth at each concentration was calculated from the test compound concentration and the absorbance of Cell Counting Kit-8, and the concentration of the test compound necessary for inhibiting 50% of cell growth (IC50 value) was calculated by using EXSUS (version 8.0.0 or version 8.0.1, manufactured by CAC Exicare Corp.).

[2] = system: IL-17 production in human PBMC-derived T cells; test: Human PBMC various-stimulant cocktail-induced IL-17 production inhibition test; assay type: cell-based; conditions: 120 h; human T-cell suspension from PBMC, cocktail of various stimulants, incubation for 5 days, ELISA
Source text: Human PBMC Various-Stimulant Cocktail-Induced IL-17 Production Inhibition Test
PBMC was separated and collected by using Ficoll-Paque (17-1440-02 manufactured by GE Healthcare Japan Corp.) from blood collected from healthy human adult in the presence of heparin. The collected PBMC was further cultured in a flask for a certain time, and then, non-adherent cells in the supernatant were collected and used as a T-cell suspension. RPMI1640 medium (manufactured by GIBCO/Thermo Fisher Scientific, Inc., REF. 11875), which is containing 10% FBS (manufactured by GIBCO/Thermo Fisher Scientific, Inc., REF. 10082), 1% penicillin/streptomycin/amphotericin B (manufactured by GIBCO/Thermo Fisher Scientific, Inc., REF. 15240-096), 1% nonessential amino acids (manufactured by GIBCO/Thermo Fisher Scientific, Inc., REF. 11140-050), and 1% pyruvic acid (manufactured by GIBCO/Thermo Fisher Scientific, Inc., REF. 11140) and containing a test compound dissolved in DMSO, 2 μg/mL (final concentration) CD28 antibody (manufactured by BioLegend, Inc., Cat. No. 302914), 10 μg/mL (final concentration) human IFN-γ antibody (manufactured by BD Biosciences, Cat. No. 554698), 10 μg/mL (final concentration) human IL-4 antibody (manufactured by BD Biosciences, Cat. No. 554481), 20 ng/mL (final concentration) human IL-6 (manufactured by BioLegend, Inc., Cat. No. 570802), 10 ng/mL (final concentration) human IL-23 (manufactured by BioLegend, Inc., Cat. No. 574102), 10 ng/mL (final concentration) human IL-1(3 (manufactured by PeproTech Inc., Cat. No. 200-01B), and 10 ng/mL (final concentration) human TGF-13 (manufactured by BioLegend, Inc., Cat. No. 580702), was added at 100 μL/well to T cell Activation Plate Anti-Human CD3 96-well plate (manufactured by Corning Inc., REF. 354725). Subsequently, 100 μL of a T-cell suspension adjusted to 2×10^5 cells/mL was added to each well (final DMSO concentration: 0.1%). Only DMSO was added to wells in the absence of the test compound. After incubation for 5 days in a carbon dioxide incubator, the culture supernatant was collected and stored at −20° C. until IL-17 content measurement.
In the IL-17 content measurement in the culture supernatant, a sandwich ELISA kit (Quantikine Human IL-17, manufactured by R&D Systems, Inc.) was used. The IL-17 content of each sample was calculated from the calibration curve of Standard IL-17 included in the kit. When the amount of IL-17 produced by the cocktail of various stimulants in the case of the addition of only DMSO was defined as 100%, the rate of inhibition of IL-17 production at each concentration of the test compound was calculated. The concentration of the test compound necessary for inhibiting 50% of IL-17 production (IC50 value) was calculated from the concentration of the added test compound and the rate of inhibition of IL-17 production by the test compound by using EXSUS (version 8.0.0 or version 8.0.1, manufactured by CAC Exicare Corp.).

[3] = system: IL-6 production in rat adjuvant arthritis model; test: IL-6 production inhibition test in rat adjuvant arthritis model; assay type: in vivo, LEW rats; conditions: single dose, left ankle, read-out: rate of inhibition of IL-6 production; for inhibition in vivo at 10 mg/kg: administration of 10 mg/kg; for inhibition in vivo at 3 mg/kg: administration of 3 mg/kg
Procedure: IL-6 Production Inhibition Test in Rat Adjuvant Arthritis Model
A single-dose drug efficacy test using rat adjuvant arthritis models was carried out by modifying the method of Magari. K et al. (J. Rheumatol. 30 (10), 2193 (2003)).
LEW rats (female, supplied by Charles River Laboratories Japan, Inc.) were used as laboratory animals. An adjuvant prepared from heat-killed bacteria of Mycobacterium butyricum (264010 manufactured by Difco Laboratories Ltd.) and liquid paraffin (manufactured by Wako Pure Chemical Industries, Ltd., Code No. 128-04375) was subcutaneously administered as a phlogogenic material to the right hind leg footpads of the rats under inhalation anesthesia with isoflurane (manufactured by Wako Pure Chemical Industries, Ltd., Code No. 099-06571) to prepare arthritis models. Approximately 2 weeks later, left paw edema was measured with a paw volume meter (model TK-101CMP manufactured by Unicorn Co., Ltd.), and grouping was performed such that the average volume of left paw edema was equal among groups. A test compound or only a solvent was administered, after a certain time, they were sacrificed by exsanguination from the abdomens under isoflurane anesthesia, and the left ankles were collected, chopped, and frozen by using liquid nitrogen. The collected left ankle portions were disrupted in CRYOPress (model CP-100WP manufactured by Microtec Co., Ltd.), then supplemented with a buffer solution, shaken overnight at 4° C., and then centrifuged to collected a supernatant. The preparation of the buffer solution was performed by mixing a Tris buffer solution (pH 7.4), sodium chloride (NaCl), phenyl methyl sulfonyl fluoride (PMSF), Triton X-100, EDTA-free complete tablets (manufactured by F. Hoffmann-La Roche, Ltd., REF. 11 873 580 001), and Otsuka distilled water (manufactured by Otsuka Pharmaceutical Co., Ltd., product No. 1323). IL-6 in the collected supernatant was measured by using a sandwich ELISA kit (manufactured by R&D Systems, Inc., Catalog No. S6050).
The IL-6 content of each sample was calculated from the calibration curve of Standard IL-6 included in the kit. When the amount of IL-6 produced in the solvent administration control group was defined as 100%, the rate of inhibition of IL-6 production (%) at each dose of the test compound was calculated.

Row | SMILES | IC50 [1] [nM] | IC50 [2] [nM] | inhibition in vivo at 10 mg/kg [3] [%] | inhibition in vivo at 3 mg/kg [3] [%]
1 | CC(C)(CO)C(NC(=O)N1Cc2c(NC(=O)C3([Si](C)(C)C)CCC3)n[nH]c2C1(C)C)c1ccccc1 (racemic) [IV-354, N-(3-Hydroxy-2,2-dimethyl-1-phenylpropyl)-6,6-dimethyl-3-[1-(trimethylsilyl)cyclobutanecarboxamido]-4,6-dihydropyrrolo[3,4-c]pyrazole-5(1H)-carboxamide] | ≤ 500 | ≤ 50 | – | –
2 | CC1(C)c2[nH]nc(NC(=O)C(C)(C)[Si](C)(C)C)c2CN1C(=O)N[C@H](CO)c1ccccc1 [II-114, (S)—N-(2-Hydroxy-1-phenylethyl)-6,6-dimethyl-3-[2-methyl-2-(trimethylsilyl)propanamido]-4,6-dihydropyrrolo[3,4-c]pyrazole-5(1H)-carboxamide] | – | – | ≥ 50 | –
3 | CC1(C)c2[nH]nc(NC(=O)C3([Si](C)(C)C)CCC3)c2CN1C(=O)O[C@H](CO)c1ccccc1 [IV-2, (S)-2-Hydroxy-1-phenylethyl 6,6-dimethyl-3-[1-(trimethylsilyl)cyclobutanecarboxamido]-4,6-dihydropyrrolo[3,4-c]pyrazole-5(1H)-carboxylate] | – | – | ≥ 50 | –
4 | CN(C(=O)N1Cc2c(NC(=O)C3([Si](C)(C)C)CCC3)n[nH]c2C1(C)C)[C@H](CO)c1ccccc1 [IV-119, (S)—N-(2-Hydroxy-1-phenylethyl)-N,6,6-trimethyl-3-[1-(trimethylsilyl)cyclobutanecarboxamido]-4,6-dihydropyrrolo[3,4-c]pyrazole-5(1H)-carboxamide] | – | – | ≥ 50 | –
5 | COC[C@@H](NC(=O)N1Cc2c(NC(=O)C3([Si](C)(C)C)CCC3)n[nH]c2C1(C)C)c1ccccc1 [IV-123, (S)—N-(2-Methoxy-1-phenylethyl)-6,6-dimethyl-3-[1-(trimethylsilyl)cyclobutanecarboxamido]-4,6-dihydropyrrolo[3,4-c]pyrazole-5(1H)-carboxamide] | ≤ 500 | – | – | ≥ 50
6 | CC1(C)c2[nH]nc(NC(=O)C3([Si](C)(C)C)CCC3)c2CN1C(=O)C(CO)c1ccccc1 (centres unmarked) [IV-632, N-[5-(3-Hydroxy-2-phenylpropanoyl)-6,6-dimethyl-1,4,5,6-tetrahydropyrrolo[3,4-c]pyrazol-3-yl]-1-(trimethylsilyl)cyclobutanecarboxamide] | – | – | – | ≥ 50
7 | CO[C@@H](C(=O)N1Cc2c(NC(=O)C3([Si](C)(C)C)CCC3)n[nH]c2C1(C)C)c1ccccc1 [IV-1175, (R)—N-[5-(2-Methoxy-2-phenylacetyl)-6,6-dimethyl-1,4,5,6-tetrahydropyrrolo[3,4-c]pyrazol-3-yl]-1-(trimethylsilyl)cyclobutanecarboxamide] | ≤ 500 | ≤ 50 | – | –
8 | CC[Si](C)(C)C1(C(=O)Nc2n[nH]c3c2CN(C(=O)[C@H](OC)c2ccccc2)C3(C)C)CCC1 [IV-1178, (R)-1-(Ethyldimethylsilyl)-N-[5-(2-methoxy-2-phenylacetyl)-6,6-dimethyl-1,4,5,6-tetrahydropyrrolo[3,4-c]pyrazol-3-yl] cyclobutanecarboxamide] | ≤ 500 | ≤ 50 | – | –
9 | CC1(C)c2[nH]nc(NC(=O)C3([Si](C)(C)C)CCC3)c2CN1C(=O)[C@H](OC(F)F)c1ccccc1 [IV-1180, (R)—N-{5-[2-(Difluoromethoxy)-2-phenylacetyl]-6,6-dimethyl-1,4,5,6-tetrahydropyrrolo[3,4-c]pyrazol-3-yl}-1-(trimethylsilyl)cyclobutanecarboxamide] | ≤ 500 | ≤ 50 | – | –
10 | CCO[C@@H](C(=O)N1Cc2c(NC(=O)C3([Si](C)(C)C)CCC3)n[nH]c2C1(C)C)c1ccccc1 [IV-1188, (R)—N-[5-(2-Ethoxy-2-phenylacetyl)-6,6-dimethyl-1,4,5,6-tetrahydropyrrolo[3,4-c]pyrazol-3-yl]-1-(trimethylsilyl)cyclobutanecarboxamide] | ≤ 500 | ≤ 50 | – | –
11 | CC1(C)c2[nH]nc(NC(=O)C3([Si](C)(C)C)CCC3)c2CN1C(=O)[C@H](OC1CC1)c1ccccc1 [IV-1208, (R)—N-[5-(2-Cyclopropoxy-2-phenylacetyl)-6,6-dimethyl-1,4,5,6-tetrahydropyrrolo[3,4-c]pyrazol-3-yl]-1-(trimethylsilyl)cyclobutanecarboxamide] | – | ≤ 50 | – | –
12 | CO[C@@H](C(=O)N1Cc2c(NC(=O)C3([Si](C)(C)C)CCC3)n[nH]c2C1(C)C)c1ccccc1F [IV-1383, (R)—N-{5-[2-(2-Fluorophenyl)-2-methoxyacetyl]-6,6-dimethyl-1,4,5,6-tetrahydropyrrolo[3,4-c]pyrazol-3-yl}-1-(trimethylsilyl)cyclobutanecarboxamide] | – | ≤ 50 | – | –
13 | COC(C(=O)N1Cc2c(NC(=O)C3([Si](C)(C)C)CCC3)n[nH]c2C1(C)C)c1cccc(F)c1 (centres unmarked) [IV-1404, N-{5-[2-(3-Fluorophenyl)-2-methoxyacetyl]-6,6-dimethyl-1,4,5,6-tetrahydropyrrolo[3,4-c]pyrazol-3-yl}-1-(trimethylsilyl)cyclobutanecarboxamide] | – | ≤ 50 | – | –
14 | COC(C(=O)N1Cc2c(NC(=O)C3([Si](C)(C)C)CCC3)n[nH]c2C1(C)C)c1cccs1 (centres unmarked) [IV-1546, N-{5-[2-Methoxy-2-(thiophen-2-yl)acetyl]-6,6-dimethyl-1,4,5,6-tetrahydropyrrolo[3,4-c]pyrazol-3-yl}-1-(trimethylsilyl)cyclobutanecarboxamide] | – | ≤ 50 | – | –
